The supplement of paper PMC8837787

What follows are compounds tested on Saccharomyces cerevisiae ABC16-Green Monster (assay: growth inhibition at single dose (up to 150 µM), below the 70% cut-off for dose-response; higher = more potent). Conditions: 18 h; 30 °C; YPD.
Procedure, shortened: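 Percent growth inhibition is the reported value. Drug-sensitive S. cerevisiae ABC16-Green Monster cultures in log phase (OD600 0.1–0.2), 200 µl per well in 96-well plates, received each library compound once at 150 µM in biological duplicates, with untreated cultures run alongside. Growth was followed by OD600 at 0 h and after 18 h at 30 °C. Dose-response was not done for compounds below 70% in both replicates.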
For `CCc1c(C(=O)Nc2ccn(CCc3ccccn3)n2)cnn1C(C)(C)C`, the “growth inhibition at single dose” value was under 70%. In the case of `CCN(CC)c1ccc(NC(=O)c2cccs2)cc1`, the “growth inhibition at single dose” value is reported as under 70%. With `Cc1cc(C)n(-c2nc(-c3ccccc3)cc(N3CCOCC3)n2)n1` the “growth inhibition at single dose” value was under 70%. For `COc1ccnc(Nc2ccc3c(c2)nc2n3CCCCC2)n1`, the “growth inhibition at single dose” value was under 70%. In the case of `O=C(Nc1ccc(F)c(Cl)c1)c1[nH]nc2ccccc12`, the “growth inhibition at single dose” value is reported as under 70%. With `O=C(Nc1ccc(C23CC4CC(CC(c5ccccc5)(C4)C2)C3)cc1)c1cccs1` the “growth inhibition at single dose” value was under 70%. In the case of `CC(=O)NCCc1nc2ccccc2n1Cc1ccc(C(C)C)cc1`, the “growth inhibition at single dose” value is reported as under 70%. For `N#Cc1ccc(NCCNc2nc3ccccc3s2)nc1`, the “growth inhibition at single dose” value was under 70%. `CC1CCc2[nH]c3ccc(C(=O)Nc4ccccc4N4CCCCC4)cc3c2C1` (stereo not given) was tested, and the “growth inhibition at single dose” value was under 70%. For `CNc1snc(C)c1C(=O)OCc1coc(-c2cccs2)n1`, the “growth inhibition at single dose” value was under 70%. In the case of `Cc1cc(Nc2cccc(C(F)(F)F)c2)n2ncc(C#N)c2n1`, the “growth inhibition at single dose” value is reported as under 70%. `CC(C)Cn1c2c(c(O)c(C(=O)Nc3ncccc3O)c1=O)CCCC2` was tested, and the “growth inhibition at single dose” value was under 70%. `Cc1ccc(NC(=O)CC2COc3ccccc3O2)cc1Cl` (stereo not given) was tested, and the “growth inhibition at single dose” value was under 70%. `CCCC(c1nnnn1C1CCCCC1)N1CCN(C(=O)c2ccco2)CC1` (stereo not given) was tested, and the “growth inhibition at single dose” value was under 70%. With `FC(F)(F)c1nc(N2CCN(c3ccncc3)CC2)c2ccccc2n1` the “growth inhibition at single dose” value was under 70%. `CCOC(=O)c1c[nH]c2c(F)cc(F)cc2c1=O` was tested, and the “growth inhibition at single dose” value was under 70%. For `Cc1cc(NC(=O)C(C)(C)C)sc1C(=O)Nc1ccccc1O`, the “growth inhibition at single dose” value was under 70%. `COc1ccc(-c2cc(=O)oc3c4c(ccc23)OCN(Cc2ccc(F)cc2)C4)cc1` was tested, and the “growth inhibition at single dose” value was under 70%. In the case of `CC(C)(C)c1nc(-c2ccc(N)cc2)no1`, the “growth inhibition at single dose” value is reported as under 70%. In the case of `CCn1c(SCC(=O)Nc2cc(C(F)(F)F)ccc2Cl)nc2ccccc2c1=O`, the “growth inhibition at single dose” value is reported as under 70%. With `COc1ccc(-c2csc3ncnc(Sc4nnc(-c5cccc(C)c5)n4CC(N)=O)c23)cc1` the “growth inhibition at single dose” value was under 70%. In the case of `COc1ccc(-c2cn3c(C(=O)Nc4ccccc4Cl)c(-c4ccccc4)c4c3n2CCCC4)cc1`, the “growth inhibition at single dose” value is reported as under 70%. `COc1cccc(CC(=O)N2CCC(n3c(C)nc4ccc(F)cc43)CC2)c1` was tested, and the “growth inhibition at single dose” value was under 70%. For `Cc1cc(NC(=O)c2ccc(Oc3ccc(Cl)cc3O)o2)no1`, the “growth inhibition at single dose” value was under 70%. `Cn1ncc2c(N3CCN(CC(=O)Nc4nc(-c5c[nH]c6ccccc56)cs4)CC3)ncnc21` was tested, and the “growth inhibition at single dose” value was under 70%. With `Cc1cccc(N2CCN(C(=O)c3ccc4[nH]c(C)c(C)c4c3)CC2)c1C` the “growth inhibition at single dose” value was under 70%. With `Cc1ccc(-c2noc(CN3CCN(c4cc(C)nc(N)n4)CC3)n2)cc1` the “growth inhibition at single dose” value was under 70%. `O=C(c1cnc2cc3c(cc2c1)OCCO3)c1cc(F)ccc1O` was tested, and the “growth inhibition at single dose” value was under 70%. `CCOc1ccc(-c2nc(NC(=O)CS(=O)(=O)c3ccccc3)sc2C)cc1` was tested, and the “growth inhibition at single dose” value was under 70%. For `CC(=O)C1C2C(=O)N(C(C)(C)C)C(=O)C2C2C=Cc3ccc4cccnc4c3N21` (stereo not given), the “growth inhibition at single dose” value was under 70%. In the case of `Cc1ccc(-c2nc3ccccc3o2)cc1NCc1cc(Cc2ccccc2)ccc1O`, the “growth inhibition at single dose” value is reported as under 70%. In the case of `Cc1ccc(C(=O)Nc2ccc(S(=O)(=O)O)c3cc(S(=O)(=O)O)cc(S(=O)(=O)O)c23)cc1NC(=O)c1cccc(NC(=O)Nc2cccc(C(=O)Nc3cc(C(=O)Nc4ccc(S(=O)(=O)O)c5cc(S(=O)(=O)O)cc(S(=O)(=O)O)c45)ccc3C)c2)c1`, the “growth inhibition at single dose” value is reported as under 70%. In the case of `COc1ccc(-n2nc(C)c3c2NC(=O)CC3c2ccc3c(c2)OCO3)cc1` (stereo not given), the “growth inhibition at single dose” value is reported as under 70%. In the case of `CC(=O)c1ccc(NC(=O)CSc2nc(-c3ccccc3Cl)ns2)cc1`, the “growth inhibition at single dose” value is reported as under 70%. `CC(C)OCc1cc(CN2CCN(c3cccc(Cl)c3)CC2)c(O)c2ncccc12` was tested, and the “growth inhibition at single dose” value was under 70%. `Oc1ccccc1CNCC12CC3CC(CC(C3)C1)C2` was tested, and the “growth inhibition at single dose” value was under 70%. For `CCNC(=O)C(C)NC(=O)c1cc(-c2ccccc2)nc2c1cnn2Cc1ccccc1Cl` (stereo not given), the “growth inhibition at single dose” value was under 70%. For `C=CCn1c(C)cc(C(=O)CSc2nc3ccccc3s2)c1C`, the “growth inhibition at single dose” value was under 70%. For `Cc1ccc(NC(=O)c2cc(S(=O)(=O)NC(C)(C)C)ccc2C)nc1`, the “growth inhibition at single dose” value was under 70%. For `C=CCn1c[n+](C2=C(NS(=O)(=O)c3ccc(C)cc3)C(=O)c3ccccc3C2=O)c2ccccc21`, the “growth inhibition at single dose” value was under 70%. For `c1ccc(C2=Nc3ccccc3N=C(c3ccccc3)c3ccccc32)cc1`, the “growth inhibition at single dose” value was under 70%. With `Cc1ccc2c(c1)s/c(=N/C(=O)c1cccs1)n2C` the “growth inhibition at single dose” value was under 70%. For `O=C(NC1CC1)c1ccc(CN(C2CC2)S(=O)(=O)c2ccccc2F)cc1`, the “growth inhibition at single dose” value was under 70%. With `CCOC(=O)c1c(C)nn(-c2ccc(NC(=O)c3cccs3)cc2)c1C` the “growth inhibition at single dose” value was under 70%. `O=C(Nc1ccc(N2CCCC2)cn1)c1cc(Cl)ccn1` was tested, and the “growth inhibition at single dose” value was under 70%.
